Data published in ChEMBL document CHEMBL3822455, “Aryl or heteroaryl substituted aminal derivatives of HCV NS5A inhibitor MK-8742” (Bioorg Med Chem Lett, 2016).

Assays:
Assay type in all cases: functional, organism-based, Hepacivirus hominis
Hepatitis C virus [1] = assay: Antiviral activity against HCV genotype 1b assessed as replicon RNA level measured after 3 days by real-time PCR method; settings: 72 h
Hepatitis C virus [2] = assay: Antiviral activity against HCV genotype 2a assessed as replicon RNA level measured after 3 days by real-time PCR method; settings: 72 h
Hepatitis C virus [3] = assay: Antiviral activity against HCV genotype 1a harboring NS5A L31V mutant assessed as replicon RNA level measured after 3 days by real-time PCR method; settings: subtype 1a, 72 h
Hepatitis C virus [4] = assay: Antiviral activity against HCV genotype 1a assessed as replicon RNA level measured after 3 days by real-time PCR method; settings: subtype 1a, 72 h
Hepatitis C virus [5] = assay: Antiviral activity against HCV genotype 2b assessed as replicon RNA level measured after 3 days by real-time PCR method; settings: 72 h
Hepatitis C virus [6] = assay: Antiviral activity against HCV genotype 4a assessed as replicon RNA level measured after 3 days by real-time PCR method; settings: 72 h
Hepatitis C virus [7] = assay: Antiviral activity against HCV genotype 1a harboring NS5A Y93H mutant assessed as replicon RNA level measured after 3 days by real-time PCR method; settings: subtype 1a, 72 h
Hepatitis C virus [8] = assay: Antiviral activity against HCV genotype 3a assessed as replicon RNA level measured after 3 days by real-time PCR method; settings: 72 h

Compound | EC50 (Hepatitis C virus [1]) | EC50 (Hepatitis C virus [2]) | EC50 (Hepatitis C virus [3]) | EC50 (Hepatitis C virus [4]) | EC50 (Hepatitis C virus [5]) | EC50 (Hepatitis C virus [6]) | EC50 (Hepatitis C virus [7]) | EC50 (Hepatitis C virus [8])
CCOc1cccc(C2Oc3cc(-c4cnc([C@@H]5CCCN5C(=O)[C@@H](NC(=O)OC)C(C)C)[nH]4)ccc3-c3cc4cc(-c5cnc([C@@H]6CCCN6C(=O)[C@@H](NC(=O)OC)C(C)C)[nH]5)ccc4n32)c1 (mixture of isomers) | 0.001 nM | 0.01 nM | 0.2 nM | 0.02 nM | 0.4 nM | 0.0005 nM | 1.8 nM | 0.05 nM
COC(=O)N[C@H](C(=O)N1CCC[C@H]1c1ncc(-c2ccc3c(c2)OC(c2cccc(-c4ncon4)c2)n2c-3cc3cc(-c4cnc([C@@H]5CCCN5C(=O)[C@@H](NC(=O)OC)C(C)C)[nH]4)ccc32)[nH]1)C(C)C (mixture of isomers) | 0.006 nM | 0.007 nM | 0.2 nM | 0.009 nM | 4 nM | 0.02 nM | 6 nM | 0.4 nM
COC(=O)N[C@H](C(=O)N1CCC[C@H]1c1ncc(-c2ccc3c(c2)OC(c2ccc(-c4ccccc4)cc2)n2c-3cc3cc(-c4cnc([C@@H]5CCCN5C(=O)[C@@H](NC(=O)OC)C(C)C)[nH]4)ccc32)[nH]1)C(C)C (mixture of isomers) | < 0.02 nM | < 0.2 nM | < 2 nM | < 0.02 nM | < 2 nM | < 0.02 nM | < 2 nM | < 0.2 nM
COC(=O)N[C@H](C(=O)N1CCC[C@H]1c1ncc(-c2ccc3c(c2)OC(c2cccc(C(=O)O)c2)n2c-3cc3cc(-c4cnc([C@@H]5CCCN5C(=O)[C@@H](NC(=O)OC)C(C)C)[nH]4)ccc32)[nH]1)C(C)C (mixture of isomers) | 2.4 nM | 11.8 nM | 212 nM | 2.83 nM | > 1000 nM | 5.15 nM | > 1000 nM | 290 nM
COC(=O)N[C@H](C(=O)N1CCC[C@H]1c1ncc(-c2ccc3c(c2)OC(c2ccc(-c4ccc5cncn5c4)cc2)n2c-3cc3cc(-c4cnc([C@@H]5CCCN5C(=O)[C@@H](NC(=O)OC)C(C)C)[nH]4)ccc32)[nH]1)C(C)C (mixture of isomers) | 0.01 nM | 0.04 nM | 2 nM | 0.03 nM | 4 nM | 0.03 nM | 20 nM | 1 nM
COC(=O)N[C@H](C(=O)N1CCC[C@H]1c1ncc(-c2ccc3c(c2)OC(c2ccc(-c4ccncc4)cc2)n2c-3cc3cc(-c4cnc([C@@H]5CCCN5C(=O)[C@@H](NC(=O)OC)C(C)C)[nH]4)ccc32)[nH]1)C(C)C (mixture of isomers) | 0.004 nM | < 0.2 nM | 0.3 nM | 0.003 nM | < 2 nM | 0.02 nM | 19 nM | 0.1 nM
COC(=O)N[C@H](C(=O)N1CCC[C@H]1c1ncc(-c2ccc3c(c2)OC(c2cccnc2)n2c-3cc3cc(-c4cnc([C@@H]5CCCN5C(=O)[C@@H](NC(=O)OC)C(C)C)[nH]4)ccc32)[nH]1)C(C)C (mixture of isomers) | 0.009 nM | 0.04 nM | 0.9 nM | 0.005 nM | 2 nM | 0.03 nM | 7 nM | 2 nM
COC(=O)N[C@H](C(=O)N1CCC[C@H]1c1ncc(-c2ccc3c(c2)OC(c2cccc(C(=O)N(C)C)c2)n2c-3cc3cc(-c4cnc([C@@H]5CCCN5C(=O)[C@@H](NC(=O)OC)C(C)C)[nH]4)ccc32)[nH]1)C(C)C (mixture of isomers) | 0.01 nM | 0.04 nM | 0.4 nM | 0.02 nM | 41 nM | 0.18 nM | > 100 nM | > 1 nM
COC(=O)N[C@H](C(=O)N1CCC[C@H]1c1ncc(-c2ccc3c(c2)OC(c2cccc(-c4ccccc4)c2)n2c-3cc3cc(-c4cnc([C@@H]5CCCN5C(=O)[C@@H](NC(=O)OC)C(C)C)[nH]4)ccc32)[nH]1)C(C)C (stereo partly drawn) | 0.004 nM | 0.003 nM | 0.3 nM | 0.003 nM | 1 nM | 0.005 nM | 8 nM | 0.07 nM
COC(=O)N[C@H](C(=O)N1CCC[C@H]1c1ncc(-c2ccc3c(c2)OC(c2ccc(-c4c(C)nn(C)c4C)cc2)n2c-3cc3cc(-c4cnc([C@@H]5CCCN5C(=O)[C@@H](NC(=O)OC)C(C)C)[nH]4)ccc32)[nH]1)C(C)C (mixture of isomers) | 0.02 nM | 0.02 nM | < 2 nM | 0.04 nM | 5 nM | 0.03 nM | 15 nM | 0.2 nM
CNC(=O)c1cccc(C2Oc3cc(-c4cnc([C@@H]5CCCN5C(=O)[C@@H](NC(=O)OC)C(C)C)[nH]4)ccc3-c3cc4cc(-c5cnc([C@@H]6CCCN6C(=O)[C@@H](NC(=O)OC)C(C)C)[nH]5)ccc4n32)c1 (mixture of isomers) | 0.01 nM | 0.09 nM | < 10 nM | 0.06 nM | 24 nM | 0.18 nM | 145 nM | 0.9 nM
COC(=O)N[C@H](C(=O)N1CCC[C@H]1c1ncc(-c2ccc3c(c2)OC(c2cccc(C(F)(F)F)c2)n2c-3cc3cc(-c4cnc([C@@H]5CCCN5C(=O)[C@@H](NC(=O)OC)C(C)C)[nH]4)ccc32)[nH]1)C(C)C (mixture of isomers) | 0.003 nM | 0.003 nM | 0.62 nM | 0.003 nM | 2 nM | 0.01 nM | 2 nM | 0.04 nM
COC(=O)N[C@H](C(=O)N1CCC[C@H]1c1ncc(-c2ccc3c(c2)OC(c2cccc(C4CC4)c2)n2c-3cc3cc(-c4cnc([C@@H]5CCCN5C(=O)[C@@H](NC(=O)OC)C(C)C)[nH]4)ccc32)[nH]1)C(C)C (mixture of isomers) | 0.002 nM | 0.01 nM | 0.6 nM | 0.004 nM | 7 nM | 0.002 nM | 12 nM | 0.3 nM
COC(=O)N[C@H](C(=O)N1CCC[C@H]1c1ncc(-c2ccc3c(c2)OC(c2ccc(C#N)cc2)n2c-3cc3cc(-c4cnc([C@@H]5CCCN5C(=O)[C@@H](NC(=O)OC)C(C)C)[nH]4)ccc32)[nH]1)C(C)C (mixture of isomers) | 0.003 nM | 0.006 nM | 0.6 nM | 0.004 nM | 6.5 nM | 0.01 nM | 12 nM | 0.25 nM
COC(=O)N[C@H](C(=O)N1CCC[C@H]1c1ncc(-c2ccc3c(c2)OC(c2cccc(OC(F)(F)F)c2)n2c-3cc3cc(-c4cnc([C@@H]5CCCN5C(=O)[C@@H](NC(=O)OC)C(C)C)[nH]4)ccc32)[nH]1)C(C)C (mixture of isomers) | 0.003 nM | 0.003 nM | 0.2 nM | 0.005 nM | 3 nM | 0.01 nM | 6.2 nM | 0.03 nM
COC(=O)N[C@H](C(=O)N1CCC[C@H]1c1ncc(-c2ccc3c(c2)OC(c2ccc(-c4cccc(-c5ccccc5)c4)cc2)n2c-3cc3cc(-c4cnc([C@@H]5CCCN5C(=O)[C@@H](NC(=O)OC)C(C)C)[nH]4)ccc32)[nH]1)C(C)C (mixture of isomers) | 0.003 nM | < 0.02 nM | < 2 nM | < 0.02 nM | < 2 nM | < 0.02 nM | 2 nM | 0.2 nM
COC(=O)N[C@H](C(=O)N1CCC[C@H]1c1ncc(-c2ccc3c(c2)OC(c2ccc(C4CC4)cc2)n2c-3cc3cc(-c4cnc([C@@H]5CCCN5C(=O)[C@@H](NC(=O)OC)C(C)C)[nH]4)ccc32)[nH]1)C(C)C (mixture of isomers) | < 0.02 nM | < 0.2 nM | 0.04 nM | 0.003 nM | 0.5 nM | < 0.2 nM | 0.5 nM | 0.03 nM
COC(=O)N[C@H](C(=O)N1CCC[C@H]1c1ncc(-c2ccc3c(c2)OC(c2ccc(-c4cncnc4)cc2)n2c-3cc3cc(-c4cnc([C@@H]5CCCN5C(=O)[C@@H](NC(=O)OC)C(C)C)[nH]4)ccc32)[nH]1)C(C)C (mixture of isomers) | 0.023 nM | 0.04 nM | 10 nM | 0.07 nM | 13 nM | 0.04 nM | 70 nM | 1 nM
COC(=O)N[C@H](C(=O)N1CCC[C@H]1c1ncc(-c2ccc3c(c2)OC(c2cccc(-c4noc(C)n4)c2)n2c-3cc3cc(-c4cnc([C@@H]5CCCN5C(=O)[C@@H](NC(=O)OC)C(C)C)[nH]4)ccc32)[nH]1)C(C)C (mixture of isomers) | 0.004 nM | 0.002 nM | 0.2 nM | 0.003 nM | 2 nM | 0.01 nM | 0.9 nM | 0.07 nM
COC(=O)N[C@H](C(=O)N1CCC[C@H]1c1ncc(-c2ccc3c(c2)OC(c2cccc(-c4ccc(N)nc4)c2)n2c-3cc3cc(-c4cnc([C@@H]5CCCN5C(=O)[C@@H](NC(=O)OC)C(C)C)[nH]4)ccc32)[nH]1)C(C)C (mixture of isomers) | 0.006 nM | 0.005 nM | 0.2 nM | 0.004 nM | 2 nM | 0.002 nM | 10 nM | 0.2 nM
COC(=O)N[C@H](C(=O)N1CCC[C@H]1c1ncc(-c2ccc3c(c2)OC(c2ccc(-c4ccc(-c5ccccc5)cc4)cc2)n2c-3cc3cc(-c4cnc([C@@H]5CCCN5C(=O)[C@@H](NC(=O)OC)C(C)C)[nH]4)ccc32)[nH]1)C(C)C (mixture of isomers) | 0.002 nM | 0.003 nM | 0.06 nM | 0.001 nM | 0.06 nM | 0.001 nM | < 2 nM | 0.1 nM
